Experimental data reported in patent US11634702B2, “Cell signaling pathway activation by local AC electric field” (ARIZONA BOARD OF REGENTS ON BEHALF OF ARIZONA STATE …, priority 2018, dated 2023).

Test system: EGFR-Ras-ERK signaling pathway in MCF10A cells
Experiment: ERK activation by AC EF stimulation (ERKTR reporter) in blocker tests
Type: cell-based

| SMILES | effect on ERK activation under AC EF stimulation (Trolox 350 μM) | effect on ERK activation under AC EF stimulation (BAPTA AM 3 μM) |
| --- | --- | --- |
| Cc1c(C)c2c(c(C)c1O)CCC(C)(C(=O)O)O2 (centres unmarked) [Trolox] | neither Ca2+ chelator (BAPTA AM, 3 μM, Life Technologies), nor ROS quencher (Trolox, 350 μM, Sigma-Aldrich) could block the EF activation of ERK | – |
| CC(=O)OCOC(=O)CN(CC(=O)OCOC(C)=O)c1ccccc1OCCOc1ccccc1N(CC(=O)OCOC(C)=O)CC(=O)OCOC(C)=O [BAPTA AM] | – | neither Ca2+ chelator (BAPTA AM, 3 μM, Life Technologies), nor ROS quencher (Trolox, 350 μM, Sigma-Aldrich) could block the EF activation of ERK |
